Consider seven compounds from patent EP0075141A1, “1,2,5-Oxadiazole-3,4-dicarboxylic-acid derivatives, process for their production, their use and pharmaceutical preparations containing them” (CASSELLA Aktiengesellschaft, priority 1981, dated 1983).

The experiment has as its system Bastardhunden. Put plainly: Haemodynamic study of antianginal and antihypertensive action in anaesthetised mongrel dogs. It counts as in vivo. Conditions: dogs under pentobarbital or urethane-chloralose anaesthesia. The procedure:
Die Untersuchungen über die antianginöse und antihypertensive Wirkung der Verbindungen der Formel I wurden an Bastardhunden beiderlei Geschlechts in Pentobarbital-Narkose (30 bis 40 mg/ kg i.v.) oder in Urethan-Chloralose-Narkose (3 ml/kg Urethan-Chloralose-Gemisch i.v. = 20 mg/kg Chloralose und 250 mg/kg Urethan) durchgeführt. Die Beatmung der Tiere erfolgte mit einem Bird-Mark-7-Respirator. Der endexpiratorische Kohlensäuregehalt (gemessen mit einem Ultrarotabsorptionsschreiber) betrug zwischen 4,5 und 5 Vol.%. Während des gesamten Versuchs erhielten die Tiere mit Pentobarbital-Narkose eine Dauerinfusion von Pentobarbital i.v. = 4 mg(in 6 ml)/kg/h, um eine konstante Narkosetiefe zu gewährleisten; die Tiere mit Urethan-Chloralose-Narkose erhielten keine Dauerinfusion. Die Infusion wurde durch die Vena cephalica gegeben. Nach der Präparation des Versuchstieres wurde ca. 1 Stunde gewartet, bis sich alle haemodynamischen Parameter eingestellt hatten (steady state). Danach wurde mit dem eigentlichen Versuch begonnen.
Zur Bestimmung des mittleren Blutdrucks (=BDm) wurde der systolische und diastolische Blutdruck peripher in der Arteria femora1is über einen Statham-Druckaufnehmer gemessen. Ein über die Arteria carotis in den linken Ventrikel geschobener Millartip-Katheter lieferte das Signal für den linksventrikulären enddiastolischen Druck (=LVEDP) und die Herzfrequenz (=HF). Mit einem zweiten, über die Venajugularis eingeschobenen Tip-Katheter wurde der mittlere Blutdruck (=PAP) in der Arteria pulmonalis erfaßt.

With `O=C(NCCO)c1nonc1C(=O)NCCO` [HOCH2CH2NH- / HOCH2CH2NH-, 1,2,5-Oxadiazol-3,4-bis-(carbonsäure-ethanolamid)], for the setting “Dosis 1 mg/kg”, the “BDm Δ (mittlerer peripherer Blutdruck)” value is listed as -30 mmHg, the “HF Δ (Herzfrequenz)” value amounted to 0 b/min, the “LVEDP Δ (linksventrikulärer enddiastolischer Druck)” value (“LVEDP Δ” below) is reported as -1 mmHg and the “PAP Δ (mittlerer Pulmonalarteriendruck)” value is recorded as -2,0 mmHg.

In the case of `CCCNC(=O)c1nonc1C(=O)NCCC` [CH3CH2CH2NH- / CH3CH2CH2NH-, 1,2,5-Oxadiazol-3,4-bis-(carbonsäurepropylamid)], under “Dosis 1 mg/kg”, the “BDm Δ (mittlerer peripherer Blutdruck)” value is listed as -35 mmHg, the “HF Δ (Herzfrequenz)” value was 0 b/min, the “LVEDP Δ” value is -0,5 mmHg and the “PAP Δ (mittlerer Pulmonalarteriendruck)” value is on record as “+1,1 mmHg”.

`O=C(NCc1cccnc1)c1nonc1C(=O)NCc1cccnc1` [[drawing] / [drawing] (r2)]: where the note is “Dosis 3 mg/kg”, the “BDm Δ (mittlerer peripherer Blutdruck)” value was -45 mmHg, the “LVEDP Δ” value was -8,5 mmHg and the “PAP Δ (mittlerer Pulmonalarteriendruck)” value is -2,4 mmHg.

`CCOC(=O)c1nonc1C(=O)NC(C)C` [H5C2O- / [drawing] (r5)]: under “Dosis 3 mg/kg”, the “BDm Δ (mittlerer peripherer Blutdruck)” value is given as -35 mmHg, the “LVEDP Δ” value is listed as -2,5 mmHg and the “PAP Δ (mittlerer Pulmonalarteriendruck)” value was -2,0 mmHg.

With `CCOC(=O)c1nonc1C(=O)NCCCN1CCN(c2ccccc2OC)CC1` [H5C2O- / [drawing] (r7)], where the note is “Dosis 1 mg/kg”, the “BDm Δ (mittlerer peripherer Blutdruck)” value is recorded as -30 mmHg, the “LVEDP Δ” value is listed as -2,5 mmHg and the “PAP Δ (mittlerer Pulmonalarteriendruck)” value was -1 mmHg.

As for `CNC(=O)c1nonc1C(=O)NC` [H2CNH- / H3CNH-, l,2,5-0xadiazol-3,4-bis-(carbonsäuremethylamid)], under “Dosis 0,5 mg/kg”, the “BDm Δ (mittlerer peripherer Blutdruck)” value is -35 mmHg, the “HF Δ (Herzfrequenz)” value is given as “+20 b/min”, the “LVEDP Δ” value was -3,5 mmHg and the “PAP Δ (mittlerer Pulmonalarteriendruck)” value is given as -3,0 mmHg.

Regarding `O=C(NC1CCCCC1)c1nonc1C(=O)NC1CCCCC1` [[drawing] / [drawing] (r3)], for the setting “Dosis 1 mg/kg”, the “BDm Δ (mittlerer peripherer Blutdruck)” value is recorded as -55 mmHg, the “HF Δ (Herzfrequenz)” value is reported as “+15 b/min”, the “LVEDP Δ” value is listed as -10 mmHg and the “PAP Δ (mittlerer Pulmonalarteriendruck)” value is recorded as -2,7 mmHg.
